Data taken from ChEMBL document CHEMBL1201862, “PubChem BioAssay data set” (2004).
Activity calls are given as the source filed them.

Tests used:
Major prion protein = Major prion protein (Homo sapiens, UniProt P04156); format: functional, cell-based
[1] = target: T1, 1-phosphatidylinositol 4,5-bisphosphate phosphodiesterase gamma-1 (Homo sapiens, UniProt P19174); assay: Counterscreen for inhibitors of phospholipase C isozymes (PLC-B3): Fluorescence-based biochemical high throughput dose response assay to identify inhibitors of phospholipase C isozymes (PLC-gamma1).
T1 sequence (P19174 whole entry): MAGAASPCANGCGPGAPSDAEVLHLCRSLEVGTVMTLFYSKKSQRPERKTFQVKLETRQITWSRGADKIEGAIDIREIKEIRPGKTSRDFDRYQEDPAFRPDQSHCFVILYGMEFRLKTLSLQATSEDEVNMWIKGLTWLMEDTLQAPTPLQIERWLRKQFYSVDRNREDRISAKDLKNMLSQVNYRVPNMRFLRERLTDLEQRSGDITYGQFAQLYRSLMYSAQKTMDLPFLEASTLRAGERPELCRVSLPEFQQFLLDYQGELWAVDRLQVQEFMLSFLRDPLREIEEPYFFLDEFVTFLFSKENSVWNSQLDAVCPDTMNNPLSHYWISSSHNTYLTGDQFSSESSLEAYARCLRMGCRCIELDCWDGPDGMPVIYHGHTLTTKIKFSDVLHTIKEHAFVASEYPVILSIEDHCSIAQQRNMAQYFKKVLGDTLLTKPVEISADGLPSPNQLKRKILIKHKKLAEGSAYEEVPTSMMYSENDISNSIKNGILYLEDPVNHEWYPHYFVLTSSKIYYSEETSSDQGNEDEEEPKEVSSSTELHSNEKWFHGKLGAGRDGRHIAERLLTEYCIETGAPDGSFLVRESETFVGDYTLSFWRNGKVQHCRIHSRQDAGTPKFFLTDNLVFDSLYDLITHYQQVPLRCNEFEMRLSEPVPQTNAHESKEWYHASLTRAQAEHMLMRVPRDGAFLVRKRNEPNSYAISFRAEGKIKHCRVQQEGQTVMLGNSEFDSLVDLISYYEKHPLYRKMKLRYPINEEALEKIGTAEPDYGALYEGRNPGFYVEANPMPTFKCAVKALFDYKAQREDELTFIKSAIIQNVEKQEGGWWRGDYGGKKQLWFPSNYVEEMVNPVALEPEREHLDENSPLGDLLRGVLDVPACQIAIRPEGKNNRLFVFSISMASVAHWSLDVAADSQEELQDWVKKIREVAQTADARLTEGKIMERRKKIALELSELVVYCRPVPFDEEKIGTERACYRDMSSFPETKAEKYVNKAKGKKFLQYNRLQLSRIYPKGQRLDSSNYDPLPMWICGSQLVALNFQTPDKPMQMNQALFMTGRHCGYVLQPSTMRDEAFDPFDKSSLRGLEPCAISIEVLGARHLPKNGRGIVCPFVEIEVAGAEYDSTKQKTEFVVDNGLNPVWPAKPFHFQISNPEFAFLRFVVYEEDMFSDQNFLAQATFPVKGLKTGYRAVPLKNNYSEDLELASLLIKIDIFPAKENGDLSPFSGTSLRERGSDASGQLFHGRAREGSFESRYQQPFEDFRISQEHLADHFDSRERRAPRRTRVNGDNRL

[2] = target: T2, 1-phosphatidylinositol 4,5-bisphosphate phosphodiesterase beta-3 (Homo sapiens, UniProt Q01970); assay: Fluorescence-based biochemical high throughput dose response assay to identify inhibitors of phospholipase C isozymes (PLC-B3).
T2 sequence (Q01970 whole entry): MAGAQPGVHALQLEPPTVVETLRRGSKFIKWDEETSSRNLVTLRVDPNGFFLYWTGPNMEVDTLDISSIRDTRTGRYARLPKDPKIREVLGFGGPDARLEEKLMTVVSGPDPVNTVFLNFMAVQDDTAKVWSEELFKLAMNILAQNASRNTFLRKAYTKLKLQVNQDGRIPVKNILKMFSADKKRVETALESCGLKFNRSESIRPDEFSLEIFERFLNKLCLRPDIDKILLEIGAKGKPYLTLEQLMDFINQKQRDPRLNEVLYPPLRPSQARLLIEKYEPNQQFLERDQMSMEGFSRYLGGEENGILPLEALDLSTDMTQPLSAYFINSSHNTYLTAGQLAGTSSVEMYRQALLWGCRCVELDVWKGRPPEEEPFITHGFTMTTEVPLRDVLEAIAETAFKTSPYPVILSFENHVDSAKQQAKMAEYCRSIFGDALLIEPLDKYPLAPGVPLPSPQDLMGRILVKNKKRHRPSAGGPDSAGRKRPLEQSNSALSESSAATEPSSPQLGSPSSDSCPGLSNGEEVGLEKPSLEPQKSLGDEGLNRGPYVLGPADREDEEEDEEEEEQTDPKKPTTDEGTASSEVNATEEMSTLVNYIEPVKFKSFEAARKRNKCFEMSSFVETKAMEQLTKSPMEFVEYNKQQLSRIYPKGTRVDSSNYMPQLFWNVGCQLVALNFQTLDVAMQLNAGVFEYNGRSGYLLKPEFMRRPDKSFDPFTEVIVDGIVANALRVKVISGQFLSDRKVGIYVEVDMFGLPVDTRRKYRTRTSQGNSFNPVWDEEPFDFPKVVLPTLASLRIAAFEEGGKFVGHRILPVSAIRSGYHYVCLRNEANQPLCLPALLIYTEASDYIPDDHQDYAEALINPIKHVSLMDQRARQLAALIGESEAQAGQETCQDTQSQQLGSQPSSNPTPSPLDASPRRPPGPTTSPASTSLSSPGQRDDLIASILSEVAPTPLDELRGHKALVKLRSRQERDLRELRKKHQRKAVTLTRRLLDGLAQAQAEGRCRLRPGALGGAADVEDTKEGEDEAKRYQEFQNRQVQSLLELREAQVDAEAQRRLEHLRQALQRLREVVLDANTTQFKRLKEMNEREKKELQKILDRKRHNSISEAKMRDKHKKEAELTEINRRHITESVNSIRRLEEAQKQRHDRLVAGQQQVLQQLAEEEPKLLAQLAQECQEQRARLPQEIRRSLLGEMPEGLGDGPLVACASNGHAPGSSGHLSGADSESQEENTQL

[3] = DRD fibroblast viability loss – cell-based, non-viral oncogenic, luminescence, dose response (AID 1934); format: functional; settings: Homo sapiens
BJ [4] = assay: BJ-TERT fibroblast viability loss – cell-based, RAS-independent, luminescence, dose response (AID 1933); format: functional; settings: Homo sapiens
BJ [5] = assay: cells; format: functional, cell-based; settings: Homo sapiens
[6] = Trypanosoma cruzi growth suppression in host cells – NIH3T3 host cells, beta-gal luminescence, confirmation (AID 2044); format: functional, cell-based;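 also: intracellular parasites grown in NIH/3T3 mouse fibroblasts as host cells; luminescent beta-galactosidase reporter signal from transgenic T. cruzi replicating inside host cells; inhibitors lower the luminescence signal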
[7] = NIH3T3 cell viability loss – ATP luminescence, mouse fibroblasts, counter-screen, dose response (AID 2010); format: functional, cell-based;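 also: cells exposed to compound for about 90 hours before reading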
[8] = target: T3, Replicative DNA helicase DnaB (Mycobacterium tuberculosis, UniProt P9WMR3); assay: DnaB intein splicing inhibitors, dose response, biochemical, cell-free fluorescence (AID 449749); format: functional
T3 sequence (P9WMR3 whole entry): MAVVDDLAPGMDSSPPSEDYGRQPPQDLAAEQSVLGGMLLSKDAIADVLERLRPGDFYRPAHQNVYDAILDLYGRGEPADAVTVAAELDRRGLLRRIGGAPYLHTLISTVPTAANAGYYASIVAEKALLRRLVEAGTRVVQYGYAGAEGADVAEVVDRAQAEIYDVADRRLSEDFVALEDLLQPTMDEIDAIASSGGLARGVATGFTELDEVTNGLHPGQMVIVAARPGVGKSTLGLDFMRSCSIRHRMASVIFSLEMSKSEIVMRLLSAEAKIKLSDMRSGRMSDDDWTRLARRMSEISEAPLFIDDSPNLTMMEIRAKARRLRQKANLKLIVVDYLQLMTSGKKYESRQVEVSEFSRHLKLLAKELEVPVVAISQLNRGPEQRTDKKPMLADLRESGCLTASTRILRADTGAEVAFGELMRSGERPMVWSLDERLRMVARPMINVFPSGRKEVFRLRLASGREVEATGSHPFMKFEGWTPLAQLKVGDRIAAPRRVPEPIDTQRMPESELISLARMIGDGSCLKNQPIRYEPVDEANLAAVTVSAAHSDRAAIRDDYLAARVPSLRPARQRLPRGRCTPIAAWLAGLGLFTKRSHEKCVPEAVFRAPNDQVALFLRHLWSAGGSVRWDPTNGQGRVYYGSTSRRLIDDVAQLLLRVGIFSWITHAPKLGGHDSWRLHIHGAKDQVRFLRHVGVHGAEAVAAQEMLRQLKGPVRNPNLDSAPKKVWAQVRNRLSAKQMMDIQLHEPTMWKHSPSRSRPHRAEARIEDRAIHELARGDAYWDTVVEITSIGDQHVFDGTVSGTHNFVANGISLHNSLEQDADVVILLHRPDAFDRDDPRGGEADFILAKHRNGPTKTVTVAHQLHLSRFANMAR

Paired box protein Pax-8 = Paired box protein Pax-8 (Homo sapiens, UniProt Q06710); assay: PAX8 transcriptional activity inhibition in RMG-I – RMG-I cells, luciferase, cherry-pick, dose response (AID 687027); format: functional, cell-based;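 also: luciferase reporter driven by Pax8 target thyroperoxidase promoter measured by SteadyGlo luminescence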
Sequence of Paired box protein Pax-8 (Q06710 whole entry): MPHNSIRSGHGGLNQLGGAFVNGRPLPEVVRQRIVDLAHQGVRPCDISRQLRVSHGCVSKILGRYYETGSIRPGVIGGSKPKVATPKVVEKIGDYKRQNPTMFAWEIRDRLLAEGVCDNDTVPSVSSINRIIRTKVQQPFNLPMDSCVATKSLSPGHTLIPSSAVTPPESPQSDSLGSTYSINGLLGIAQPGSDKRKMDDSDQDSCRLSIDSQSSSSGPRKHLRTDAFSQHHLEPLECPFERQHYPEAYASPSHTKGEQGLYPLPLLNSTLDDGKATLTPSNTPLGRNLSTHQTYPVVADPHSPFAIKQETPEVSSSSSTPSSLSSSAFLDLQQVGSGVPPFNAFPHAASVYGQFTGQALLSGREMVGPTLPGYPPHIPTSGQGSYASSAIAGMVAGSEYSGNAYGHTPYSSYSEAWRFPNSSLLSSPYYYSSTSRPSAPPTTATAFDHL

[9] = general cell-killing toxicity readout – plate reader, dry powder samples, cytotoxicity control for PAX8 inhibitor project, dose response (AID 743021); format: functional, cell-based
Protein RecA = target: T4, Protein RecA (Mycobacterium tuberculosis, UniProt P9WHJ3); assay: Fluorescence Cell-Free Homogeneous Dose Retest to Identify Inhibitors of RecA-Intein Splicing Activity. [Related pubchem assays (depositor defined):AID2097, AID2223, AID489010, AID492950]; format: functional
T4 sequence (P9WHJ3 whole entry): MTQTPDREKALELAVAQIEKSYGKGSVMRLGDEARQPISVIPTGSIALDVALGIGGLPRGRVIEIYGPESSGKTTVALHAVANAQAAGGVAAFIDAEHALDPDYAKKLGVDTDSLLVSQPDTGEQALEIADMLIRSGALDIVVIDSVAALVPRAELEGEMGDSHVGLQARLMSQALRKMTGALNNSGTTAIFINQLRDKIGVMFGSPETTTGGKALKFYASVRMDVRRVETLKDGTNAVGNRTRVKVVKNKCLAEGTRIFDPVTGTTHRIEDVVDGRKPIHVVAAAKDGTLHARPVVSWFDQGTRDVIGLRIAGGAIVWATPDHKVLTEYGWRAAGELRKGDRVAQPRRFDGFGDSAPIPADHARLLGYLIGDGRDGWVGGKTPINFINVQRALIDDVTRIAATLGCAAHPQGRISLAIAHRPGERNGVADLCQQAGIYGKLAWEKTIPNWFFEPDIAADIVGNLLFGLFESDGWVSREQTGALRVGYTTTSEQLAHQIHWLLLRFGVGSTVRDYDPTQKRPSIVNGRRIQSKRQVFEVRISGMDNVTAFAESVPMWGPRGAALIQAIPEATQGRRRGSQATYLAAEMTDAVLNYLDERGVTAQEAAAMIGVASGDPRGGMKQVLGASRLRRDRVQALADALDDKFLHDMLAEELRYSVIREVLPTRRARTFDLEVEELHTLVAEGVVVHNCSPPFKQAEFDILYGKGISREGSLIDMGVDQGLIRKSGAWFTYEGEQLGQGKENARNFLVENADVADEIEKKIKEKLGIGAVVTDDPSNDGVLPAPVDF

BJ [10] = assay: BJ-TERT-LT-ST fibroblast viability loss – cell-based, RAS-independent, luminescence, dose response (AID 1935); format: functional; settings: Homo sapiens;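 also: BJ fibroblasts immortalized with TERT plus LT and ST oncogenes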
[11] = OVCAR8 cell viability loss – plate reader, dry powder samples, PAX8 project, dose response (AID 743197); format: functional, cell-based; settings: OVCAR-8
[12] = OVCAR-3 cell viability loss – plate reader, dry powder samples, PAX8 inhibitor project, dose response (AID 743044); format: functional, cell-based
[13] = A2780 cell killing – plate reader, dry powder samples, cytotoxicity control, dose response (AID 743046); format: functional, cell-based
[14] = IGROV1 cell killing – plate reader, dry powder samples, PAX8 inhibitor project, dose response (AID 743043); format: functional, cell-based; settings: IGROV-1
Caspase-6 = target: T5, Caspase-6 (Homo sapiens, UniProt P55212); assay: inhibition of CASP6 peptide cleavage – biochemical, VEID-R110 fluorescence, cherry-pick, dose response (AID 720632)
T5 sequence (P55212 whole entry): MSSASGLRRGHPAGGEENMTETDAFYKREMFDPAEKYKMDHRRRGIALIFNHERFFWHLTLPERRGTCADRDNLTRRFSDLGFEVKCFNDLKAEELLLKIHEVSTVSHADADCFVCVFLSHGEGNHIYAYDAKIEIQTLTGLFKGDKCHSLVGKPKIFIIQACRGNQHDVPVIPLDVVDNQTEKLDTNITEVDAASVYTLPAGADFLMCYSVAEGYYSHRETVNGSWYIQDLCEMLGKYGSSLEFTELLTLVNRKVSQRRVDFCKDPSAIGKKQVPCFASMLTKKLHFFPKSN

Compound: COc1ccccc1Cn1c(=S)[nH]c2ccc(F)cc2c1=O
- IC50 (cells): > 138 µM (inactive)
- IC50 (Major prion protein): 412 nM (active)

Compound: CC(C)(C)C(=O)NNC(=O)COc1ccc2ccccc2c1Br
- IC50 (cells): > 138 µM (inactive)
- IC50 (Major prion protein): 4910 nM (active)

Compound: COc1ccccc1-c1cc(C(=O)Nc2ccc(F)cc2F)no1
- IC50 [1]: > 122 µM (inactive)
- IC50 [2]: > 122 µM (inactive)

Compound: CC(C)N(CC(=O)Nc1ccc(Cl)cc1C(F)(F)F)C(=O)CCl
- EC50 [3]: 6.62 µM (active)
- EC50 (BJ [4]): 6.85 µM (inconclusive)
- EC50 (BJ [5]): 16.9 µM (active)
- EC50 [6]: 3.38 µM (active)
- EC50 [7]: 11.9 µM (active)
- AC50 [8]: < 18 nM (inconclusive)
- AC50 (Paired box protein Pax-8): 5.06 µM (active)
- AC50 [9]: 10 µM (active)
- EC50 (Protein RecA): 6.09 µM (active)
- EC50 (BJ [10]): > 150 µM (inconclusive)

Compound: COc1ccc(CN(C)C[C@H]2OCCCC[C@@H](C)Oc3ccc(NC(=O)Nc4ccc(F)cc4)cc3C(=O)N([C@@H](C)CO)C[C@@H]2C)cc1
- AC50 [11]: > 70 µM (inactive)
- AC50 (Paired box protein Pax-8): 21.7 µM (active)
- AC50 [9]: 51.9 µM (active)
- AC50 [12]: 33.8 µM (active)

Compound: C[C@@H]1CCCCO[C@H](CN(C)Cc2ccc(Cl)c(Cl)c2)[C@@H](C)CN([C@@H](C)CO)C(=O)c2cc(NC(=O)Nc3ccc(F)cc3)ccc2O1
- AC50 [13]: 63.6 µM (active)
- AC50 [11]: > 70 µM (inactive)
- AC50 (Paired box protein Pax-8): 6.33 µM (active)
- AC50 [12]: 51.3 µM (active)
- AC50 [14]: 29.6 µM (active)

Compound: O=C(CCc1ccccc1)N[C@H]1[C@@H](OC(=O)c2cnccn2)CCC[C@@]12C(=O)N(Cc1ccccc1)c1ccccc12
- IC50 [1]: > 122 µM (inactive)
- IC50 [2]: > 122 µM (inactive)

Compound: CO[C@H]1CN(C)C(=O)c2cc(NC(C)=O)ccc2OC[C@@H](C)N(C(=O)CC2CC2)C[C@H]1C
- AC50 (Caspase-6): 12.1 µM (active)
